Data taken from patent US20050222267A1, “Solution based methacholine formulations” (priority 2004, published 2005).
Like-named read-outs stand apart in the source and are kept apart here.

Legend:
[1] = cited from earlier work
[2] = cited from earlier work; remark: listed apart in the source
[3] = Terminal steam sterilisation (Example 3): recovery (product potency); assay type: physicochemical; conditions: 20 L batches at 16 mg/ml and 0.25 mg/ml without buffer; conventional terminal steam sterilisation
Procedure: The influence of terminal steam sterilisation on the chemical properties of the methacholine drug product was determined, specifically in terms of the influence of heat on the product potency and impurity levels within the formulations.
[…] A formulation having a relatively high concentration of methacholine was used so that any changes in chemical properties were readily apparent.
The procedure described below was used for performing the high pressure liquid chromatography (HPLC) assay analysis of methacholine chloride in solution.

stability to terminal steam sterilisation [3]: did not withstand the high temperatures
SMILES: CC(=O)OC(C)C[N+](C)(C)C (centres unmarked) [methacholine, methacholine chloride]
decomposition by hydrolysis ([1]; pH of the solution above 6): rapidly decompose
time stable in solution ([1]; solutions of >0.3 mg/ml, stored at 4° C.): at least five
pH of the saline solution ([2]; methacholine 0.39 mg/ml in saline): 3.9
pH of the saline solution ([2]; methacholine 50 mg/ml in saline): 2.7
